The record followed here is ChEMBL document CHEMBL5365534, “Discovery of a Novel Ketohexokinase Inhibitor with Improved Drug Distribution in Target Tissue for the Treatment of Fructose Metabolic Disease” (J Med Chem, 2023).

Series [1] is described as follows: Tmax in Sprague-Dawley rat at 10 mg/kg, po administered as single dose measured upto 24 hrs by LC-MS/MS analysis. It is filed as ADME, organism-based. As to conditions: in vivo.
Series [2] is described as follows: in vitro. The following applies: human, primary hepatocytes.
A short description of series [3]: AUC (0 to t) in Sprague-Dawley rat at 10 mg/kg, po administered as single dose measured upto 24 hrs by LC-MS/MS analysis. It counts as ADME, organism-based. Further details: time < 24 hrs, dose 10 mg/kg, route po. The following applies: in vivo.
The nature of series [4]: in vivo. As to conditions: Sprague-Dawley, rat, kidney, po, 10 mg/kg.
Series [5] can be described thus: Clearance in Sprague-Dawley rat at 10 mg/kg, iv administered as single dose measured upto 24 hrs by LC-MS/MS analysis. It counts as ADME, organism-based. The following applies: in vivo.
Series [6] in a line: Elimination half life in Sprague-Dawley rat at 10 mg/kg, iv administered as single dose measured upto 24 hrs by LC-MS/MS analysis. As to conditions: in vivo, read-out: beta t1/2 (converted). It counts as ADME, organism-based.
Series [7] is described as follows: Drug metabolism in rat hepatocytes assessed as oxidation/hydrogenation/decarboxylation metabolite at 10 uM measured upto 240 mins by LC-MS/MS analysis. It is filed as ADME, cell-based, Hepatocyte. The following applies: 4 h.
The target in series [8] is Voltage-gated inwardly rectifying potassium channel KCNH2 (Homo sapiens, UniProt Q12809).
Series [9] in a line: in vivo. The following applies: Sprague-Dawley, rat, liver/plasma, po, 10 mg/kg.
Series [10] can be described thus: in vitro. The following applies: mouse, liver microsomes.
Series [11] is described as follows: in vivo. As to conditions: Sprague-Dawley, rat, liver, po, 10 mg/kg.
Series [12] can be described thus: Metabolic stability in dog hepatocyte assessed as parent compound remaining at 10 uM measured after 4 hrs by LC-MS/MS analysis. It is filed as ADME, cell-based, Canis lupus familiaris. The following applies: hepatocytes, read-out: Stability.
Series [13] is described as follows: in vivo. The following applies: Sprague-Dawley, rat, plasma, po, 10 mg/kg.
Series [14] can be described thus: Drug metabolism in rat hepatocytes assessed as glycine conjugation metabolite at 10 uM measured upto 240 mins by LC-MS/MS analysis. It is filed as ADME, cell-based, Hepatocyte. The following applies: 4 h.
Series [15] is described as follows: in vitro. The following applies: rat, liver microsomes.

Bounds are passed on as bounds.

Chain of Voltage-gated inwardly rectifying potassium channel KCNH2 (Q12809 whole entry): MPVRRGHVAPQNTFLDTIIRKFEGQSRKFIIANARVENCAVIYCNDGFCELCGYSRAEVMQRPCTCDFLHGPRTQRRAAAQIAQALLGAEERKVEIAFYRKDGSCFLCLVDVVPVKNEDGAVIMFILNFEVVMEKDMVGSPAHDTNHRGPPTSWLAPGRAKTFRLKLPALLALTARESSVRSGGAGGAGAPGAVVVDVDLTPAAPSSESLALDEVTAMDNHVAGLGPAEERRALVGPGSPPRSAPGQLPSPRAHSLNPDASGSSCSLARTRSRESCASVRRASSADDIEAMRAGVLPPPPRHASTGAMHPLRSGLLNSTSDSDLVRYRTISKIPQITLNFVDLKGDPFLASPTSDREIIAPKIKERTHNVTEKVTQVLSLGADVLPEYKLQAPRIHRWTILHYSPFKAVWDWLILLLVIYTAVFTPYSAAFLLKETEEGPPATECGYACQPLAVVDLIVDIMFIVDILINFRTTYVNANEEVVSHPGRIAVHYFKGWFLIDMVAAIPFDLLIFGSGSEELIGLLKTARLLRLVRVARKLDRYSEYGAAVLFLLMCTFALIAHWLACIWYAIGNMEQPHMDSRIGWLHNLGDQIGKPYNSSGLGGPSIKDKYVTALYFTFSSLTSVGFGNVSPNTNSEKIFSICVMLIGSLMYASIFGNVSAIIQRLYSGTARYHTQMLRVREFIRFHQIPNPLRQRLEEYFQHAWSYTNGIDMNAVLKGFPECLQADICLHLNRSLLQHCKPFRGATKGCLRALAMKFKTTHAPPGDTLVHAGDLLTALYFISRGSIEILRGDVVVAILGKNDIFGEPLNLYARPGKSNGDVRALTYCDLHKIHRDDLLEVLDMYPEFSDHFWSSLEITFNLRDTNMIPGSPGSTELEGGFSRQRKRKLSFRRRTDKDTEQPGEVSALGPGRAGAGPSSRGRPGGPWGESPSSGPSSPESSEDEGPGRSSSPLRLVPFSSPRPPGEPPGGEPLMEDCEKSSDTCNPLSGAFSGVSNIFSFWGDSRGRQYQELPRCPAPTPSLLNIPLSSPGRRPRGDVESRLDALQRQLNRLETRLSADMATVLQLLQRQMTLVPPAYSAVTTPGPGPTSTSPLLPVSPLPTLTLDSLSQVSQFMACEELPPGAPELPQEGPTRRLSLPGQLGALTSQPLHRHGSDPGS

As to `C[C@H]1CCN1c1nc(N2CC[C@H](CCC(=O)O)C2)c2c(n1)C(F)(F)CC2`, in [1], the Tmax amounted to 2.33 h. Also, the IC50 at 48 h in the series “in vitro [2]” is more than 150 µM. Also, the solubility (kinetic) in “physchem” is more than 1000 µM. Moreover, in series [3], the AUCt came out at 39900 ng·h/mL. Also, the concentration at 24 h is 11000 ng/g in “in vivo [4]”, 50100 ng/g in “in vivo [11]” and 5080 ng/mL in the series “in vivo [13]”. In series [5], this compound returned a clearance of 2.52 mL/min/kg. The half-life in series [6] was 5.82 h. Besides, the Drug metabolism result in series [7] and in series [14] was “Metabolite_Notdetected” each time. The compound also returned an IC50 in [8] of more than 30 µM. The Kp at 24 h in “in vivo [9]” was 9.9. The values for the microsomal CLint at 2 h, 1 µM in the series “in vitro [10]” and in the series “in vitro [15]” were 8 µL/min/mg and less than 6.4 µL/min/mg, respectively. In [12], the remaining at 4 h, 10 µM amounted to 97.8%.

A word on the Tmax: it is the time at which the peak concentration occurs. As a reminder, the IC50 is the point on the concentration scale where inhibition reaches its midpoint. Lower therefore signals greater potency. As usually defined, the solubility (kinetic) is solubility judged after dilution from a stock solution rather than from solid. Broadly, the clearance is the rate of elimination divided by the concentration. One may read the Kp as the ratio of the level in a tissue or fluid to that in plasma or blood. A word on the microsomal CLint: it is the capacity of the preparation to metabolise the compound, expressed as a volume cleared per time.
